# Measured values as given in PMC7265341, “Quantifying CDK inhibitor selectivity in live cells” (Nature Communications, 2020).
# pIC50: −log10 of the molar value. Like-named read-outs stand apart in the source and are kept apart here.
# Legend:
# CDK4/Cyclin D1 = CDK4/Cyclin D1 (Homo sapiens, UniProt P11802); assay: NanoBRET live-cell target engagement, NanoLuc-CDK4/Cyclin D1 in HEK-293; format: binding; conditions: CDK4/D1, read-out: Inhibition at 10µM (%)
# CDK5/CDK5R1 = CDK5/CDK5R1 (Homo sapiens, UniProt Q00535); assay: NanoBRET live-cell target engagement, CDK5-NanoLuc/CDK5R1 in HEK-293; format: binding; conditions: CDK5/CDK5R1, read-out: Inhibition at 10µM (%)
# CDK8/Cyclin C = CDK8/Cyclin C (Homo sapiens, UniProt P49336); assay: NanoBRET live-cell target engagement, NanoLuc-CDK8/Cyclin C in HEK-293; format: binding; conditions: CDK8/C, read-out: Inhibition at 10µM (%)
# CDK11A/Cyclin L2 = target: T1, CDK11A/Cyclin L2 (Homo sapiens, UniProt Q9UQ88); assay: NanoBRET live-cell target engagement, CDK11A-NanoLuc/Cyclin L2 in HEK-293; format: binding; conditions: CDK11a/L2, read-out: Inhibition at 10µM (%)
# T1 sequence (Q9UQ88 1-783): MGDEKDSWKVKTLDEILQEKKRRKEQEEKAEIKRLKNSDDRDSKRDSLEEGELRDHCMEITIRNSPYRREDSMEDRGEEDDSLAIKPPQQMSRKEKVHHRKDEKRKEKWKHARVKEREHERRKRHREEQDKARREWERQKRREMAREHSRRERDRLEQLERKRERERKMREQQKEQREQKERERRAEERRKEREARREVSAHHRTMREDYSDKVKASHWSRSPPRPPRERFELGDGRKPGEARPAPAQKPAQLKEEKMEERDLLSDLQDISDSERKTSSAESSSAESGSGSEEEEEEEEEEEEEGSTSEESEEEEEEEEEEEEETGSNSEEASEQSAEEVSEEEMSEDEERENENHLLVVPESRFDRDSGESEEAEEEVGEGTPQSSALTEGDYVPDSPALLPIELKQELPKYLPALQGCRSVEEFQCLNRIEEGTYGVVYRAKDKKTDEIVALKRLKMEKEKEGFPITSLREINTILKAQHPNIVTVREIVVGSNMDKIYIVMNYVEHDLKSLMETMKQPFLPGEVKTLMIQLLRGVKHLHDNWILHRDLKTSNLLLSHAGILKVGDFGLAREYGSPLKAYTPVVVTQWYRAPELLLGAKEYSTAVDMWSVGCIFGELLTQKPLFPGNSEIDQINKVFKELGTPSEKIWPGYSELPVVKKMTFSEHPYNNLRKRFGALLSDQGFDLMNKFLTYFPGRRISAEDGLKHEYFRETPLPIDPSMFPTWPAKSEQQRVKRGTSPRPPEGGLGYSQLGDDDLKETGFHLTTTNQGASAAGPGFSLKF
# CDK11B/Cyclin L2 = CDK11B/Cyclin L2 (Homo sapiens, UniProt P21127); assay: NanoBRET live-cell target engagement, CDK11B-NanoLuc/Cyclin L2 in HEK-293; format: binding; conditions: CDK11b/L2, read-out: Inhibition at 10µM (%)
# CDK12/Cyclin K = CDK12/Cyclin K (Homo sapiens, UniProt Q9NYV4); assay: NanoBRET live-cell target engagement, CDK12-NanoLuc/Cyclin K in HEK-293; format: binding; conditions: CDK12/K, read-out: Inhibition at 10µM (%)
# CDK13/Cyclin K = CDK13/Cyclin K (Homo sapiens, UniProt Q14004); assay: NanoBRET live-cell target engagement, CDK13-NanoLuc/Cyclin K in HEK-293; format: binding; conditions: CDK13/K, read-out: Inhibition at 10µM (%)
# CDK14/Cyclin Y = CDK14/Cyclin Y (Homo sapiens, UniProt O94921); assay: NanoBRET live-cell target engagement, CDK14-NanoLuc/Cyclin Y in HEK-293; format: binding; conditions: CDK14/Y, read-out: Inhibition at 10µM (%)
# CDK15/Cyclin Y = CDK15/Cyclin Y (Homo sapiens, UniProt Q96Q40); assay: NanoBRET live-cell target engagement, NanoLuc-CDK15/Cyclin Y in HEK-293; format: binding
# CDK16/Cyclin Y = CDK16/Cyclin Y (Homo sapiens, UniProt Q00536); assay: NanoBRET live-cell target engagement, CDK16-NanoLuc/Cyclin Y in HEK-293; format: binding; conditions: CDK16/Y, read-out: Inhibition at 10µM (%)
# CDK17/Cyclin Y = CDK17/Cyclin Y (Homo sapiens, UniProt Q00537); assay: NanoBRET live-cell target engagement, CDK17-NanoLuc/Cyclin Y in HEK-293; format: binding
# CDK18/Cyclin Y = CDK18/Cyclin Y (Homo sapiens, UniProt Q07002); assay: NanoBRET live-cell target engagement, CDK18-NanoLuc/Cyclin Y in HEK-293; format: binding; conditions: CDK18/Y, read-out: Inhibition at 10µM (%)
# CDK20/Cyclin H = CDK20/Cyclin H (Homo sapiens, UniProt Q8IZL9); assay: NanoBRET live-cell target engagement, NanoLuc-CDK20/Cyclin H in HEK-293; format: binding
# all 21 human CDKs = assay: Live-cell selectivity profile across all 21 CDK/cyclin complexes in HEK-293; format: binding
# CDK19/Cyclin C = CDK19/Cyclin C (Homo sapiens, UniProt Q9BWU1); assay: NanoBRET live-cell target engagement, NanoLuc-CDK19/Cyclin C in HEK-293; conditions: read-out: Inhibition at 10µM (%), CDK19/C
# CDK10/Cyclin L2 = CDK10/Cyclin L2 (Homo sapiens, UniProt Q15131); assay: NanoBRET live-cell target engagement, CDK10-NanoLuc/Cyclin L2 in HEK-293; conditions: read-out: Inhibition at 10µM (%), CDK10/L2
# CDK6/Cyclin D1 = CDK6/Cyclin D1 (Homo sapiens, UniProt Q00534); assay: NanoBRET live-cell target engagement, NanoLuc-CDK6/Cyclin D1 in HEK-293; format: binding; conditions: read-out: Inhibition at 10µM (%), CDK6/D1
# [1] = CDK15/Y, average, read-out: Inhibition at 10µM (%)
# [2] = CDK15/Y, experiment 2, read-out: Inhibition at 10µM (%)
# [3] = CDK17/Y, average, read-out: Inhibition at 10µM (%)
# [4] = CDK17/Y, experiment 2, read-out: Inhibition at 10µM (%)
# CDK18/Cyclin Y, sequence (Q07002 whole entry): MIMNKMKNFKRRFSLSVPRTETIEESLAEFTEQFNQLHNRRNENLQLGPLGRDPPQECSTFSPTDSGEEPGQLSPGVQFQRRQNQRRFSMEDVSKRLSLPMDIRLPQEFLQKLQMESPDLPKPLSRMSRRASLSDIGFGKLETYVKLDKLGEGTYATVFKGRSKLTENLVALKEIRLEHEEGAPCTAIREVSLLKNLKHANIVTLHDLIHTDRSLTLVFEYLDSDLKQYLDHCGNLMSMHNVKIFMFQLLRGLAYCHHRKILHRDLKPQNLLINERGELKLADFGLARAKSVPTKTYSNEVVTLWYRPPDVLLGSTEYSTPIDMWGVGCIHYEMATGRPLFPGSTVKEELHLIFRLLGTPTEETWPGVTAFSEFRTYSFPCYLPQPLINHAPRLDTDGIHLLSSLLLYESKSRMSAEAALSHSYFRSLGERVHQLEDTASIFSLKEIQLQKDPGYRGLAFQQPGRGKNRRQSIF
# CDK18/Cyclin Y, sequence (Q8ND76 whole entry partner): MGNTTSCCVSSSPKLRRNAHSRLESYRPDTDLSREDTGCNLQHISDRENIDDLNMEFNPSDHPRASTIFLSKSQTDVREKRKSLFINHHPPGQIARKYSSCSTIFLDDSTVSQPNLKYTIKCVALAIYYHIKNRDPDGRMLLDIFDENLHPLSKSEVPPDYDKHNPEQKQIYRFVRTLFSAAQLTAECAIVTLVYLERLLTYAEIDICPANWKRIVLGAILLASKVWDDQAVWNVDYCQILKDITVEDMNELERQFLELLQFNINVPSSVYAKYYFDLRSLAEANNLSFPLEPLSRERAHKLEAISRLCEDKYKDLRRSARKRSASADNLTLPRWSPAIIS
# CDK11B/Cyclin L2, sequence (P21127 1-782 isoform P21127-2): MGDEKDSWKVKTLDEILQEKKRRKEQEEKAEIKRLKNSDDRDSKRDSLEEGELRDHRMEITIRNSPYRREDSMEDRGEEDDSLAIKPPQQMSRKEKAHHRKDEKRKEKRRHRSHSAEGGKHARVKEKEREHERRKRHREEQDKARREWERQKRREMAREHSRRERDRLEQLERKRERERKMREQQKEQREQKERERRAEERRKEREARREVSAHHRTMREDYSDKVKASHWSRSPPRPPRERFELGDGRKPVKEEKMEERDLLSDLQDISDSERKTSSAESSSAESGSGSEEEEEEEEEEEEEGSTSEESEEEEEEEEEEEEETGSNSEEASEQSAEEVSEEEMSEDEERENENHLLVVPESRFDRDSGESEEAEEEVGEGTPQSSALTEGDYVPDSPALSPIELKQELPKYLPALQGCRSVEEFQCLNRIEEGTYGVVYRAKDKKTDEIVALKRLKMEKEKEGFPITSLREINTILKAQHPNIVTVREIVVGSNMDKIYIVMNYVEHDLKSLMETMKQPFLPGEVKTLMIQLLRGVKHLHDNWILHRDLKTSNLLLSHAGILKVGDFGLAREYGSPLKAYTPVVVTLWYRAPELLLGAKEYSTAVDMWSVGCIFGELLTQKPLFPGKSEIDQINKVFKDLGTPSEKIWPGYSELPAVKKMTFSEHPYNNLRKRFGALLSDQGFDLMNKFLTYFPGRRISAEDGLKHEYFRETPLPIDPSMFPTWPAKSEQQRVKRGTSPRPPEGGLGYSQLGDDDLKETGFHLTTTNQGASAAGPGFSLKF
# CDK19/Cyclin C, sequence (Q9BWU1 whole entry): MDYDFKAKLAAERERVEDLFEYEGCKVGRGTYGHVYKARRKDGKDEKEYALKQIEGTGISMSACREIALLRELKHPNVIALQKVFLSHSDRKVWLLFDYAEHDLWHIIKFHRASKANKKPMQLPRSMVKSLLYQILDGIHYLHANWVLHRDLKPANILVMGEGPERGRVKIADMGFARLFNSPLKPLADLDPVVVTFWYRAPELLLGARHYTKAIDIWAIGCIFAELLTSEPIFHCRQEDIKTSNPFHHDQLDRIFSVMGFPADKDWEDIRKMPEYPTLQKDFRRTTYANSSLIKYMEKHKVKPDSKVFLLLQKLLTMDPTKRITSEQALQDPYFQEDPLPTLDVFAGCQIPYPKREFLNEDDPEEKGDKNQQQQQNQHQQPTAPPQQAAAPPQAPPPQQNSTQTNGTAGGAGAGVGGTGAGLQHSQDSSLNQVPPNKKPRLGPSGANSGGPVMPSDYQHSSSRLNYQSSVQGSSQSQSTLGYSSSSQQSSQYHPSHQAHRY
# CDK19/Cyclin C, sequence (P24863 whole entry partner): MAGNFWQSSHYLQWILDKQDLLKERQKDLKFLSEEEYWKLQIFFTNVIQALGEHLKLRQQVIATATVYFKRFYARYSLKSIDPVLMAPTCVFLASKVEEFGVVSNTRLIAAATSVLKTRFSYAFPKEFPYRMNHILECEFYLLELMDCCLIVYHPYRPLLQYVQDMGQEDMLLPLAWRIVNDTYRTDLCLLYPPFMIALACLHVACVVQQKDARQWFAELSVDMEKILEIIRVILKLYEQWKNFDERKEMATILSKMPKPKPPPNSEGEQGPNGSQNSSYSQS
# CDK15/Cyclin Y, sequence (Q96Q40 whole entry): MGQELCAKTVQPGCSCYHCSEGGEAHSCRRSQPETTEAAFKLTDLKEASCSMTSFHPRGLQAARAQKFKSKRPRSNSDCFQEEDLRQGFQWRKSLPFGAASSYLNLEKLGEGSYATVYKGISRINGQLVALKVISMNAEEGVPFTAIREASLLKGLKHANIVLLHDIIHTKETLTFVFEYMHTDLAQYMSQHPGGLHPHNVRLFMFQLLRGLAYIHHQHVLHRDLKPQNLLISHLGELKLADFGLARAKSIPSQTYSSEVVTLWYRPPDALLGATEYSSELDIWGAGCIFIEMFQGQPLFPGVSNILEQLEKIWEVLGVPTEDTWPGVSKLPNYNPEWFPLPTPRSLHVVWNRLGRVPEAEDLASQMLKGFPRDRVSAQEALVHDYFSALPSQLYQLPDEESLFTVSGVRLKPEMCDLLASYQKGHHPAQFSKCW
# CDK15/Cyclin Y, sequence (Q8ND76 whole entry partner): as the sequence (Q8ND76 whole entry partner) above
# CDK8/Cyclin C, sequence (P49336 whole entry): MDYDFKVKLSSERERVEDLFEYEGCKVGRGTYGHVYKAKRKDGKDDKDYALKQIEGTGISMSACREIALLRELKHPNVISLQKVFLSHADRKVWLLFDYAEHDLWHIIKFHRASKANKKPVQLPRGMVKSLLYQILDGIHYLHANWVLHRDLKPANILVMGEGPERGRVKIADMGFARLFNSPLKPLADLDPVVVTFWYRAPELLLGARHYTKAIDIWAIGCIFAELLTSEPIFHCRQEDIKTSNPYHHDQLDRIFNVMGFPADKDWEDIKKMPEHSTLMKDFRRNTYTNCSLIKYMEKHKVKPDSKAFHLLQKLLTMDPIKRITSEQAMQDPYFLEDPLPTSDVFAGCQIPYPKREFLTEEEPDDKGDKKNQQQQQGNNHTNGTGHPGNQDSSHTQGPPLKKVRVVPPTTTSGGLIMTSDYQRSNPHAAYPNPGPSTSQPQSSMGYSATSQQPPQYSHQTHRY
# CDK8/Cyclin C, sequence (P24863 whole entry partner): as the sequence (P24863 whole entry partner) above
# CDK4/Cyclin D1, sequence (P11802 whole entry): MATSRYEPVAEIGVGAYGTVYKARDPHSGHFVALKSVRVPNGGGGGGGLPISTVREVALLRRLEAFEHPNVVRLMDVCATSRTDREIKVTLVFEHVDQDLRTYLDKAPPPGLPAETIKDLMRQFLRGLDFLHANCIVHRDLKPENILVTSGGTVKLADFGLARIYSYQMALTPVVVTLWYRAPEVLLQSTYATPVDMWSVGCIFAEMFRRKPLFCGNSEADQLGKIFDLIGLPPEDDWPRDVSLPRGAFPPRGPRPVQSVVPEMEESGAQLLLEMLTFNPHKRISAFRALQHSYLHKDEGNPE
# CDK4/Cyclin D1, sequence (P24385 whole entry partner): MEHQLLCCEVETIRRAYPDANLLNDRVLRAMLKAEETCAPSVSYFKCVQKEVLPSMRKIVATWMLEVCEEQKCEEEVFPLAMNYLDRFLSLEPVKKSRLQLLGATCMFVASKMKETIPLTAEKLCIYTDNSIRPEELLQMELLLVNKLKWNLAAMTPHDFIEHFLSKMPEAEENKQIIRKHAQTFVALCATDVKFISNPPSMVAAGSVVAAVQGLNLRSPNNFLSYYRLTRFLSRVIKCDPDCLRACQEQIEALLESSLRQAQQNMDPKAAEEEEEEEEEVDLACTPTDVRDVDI
# CDK16/Cyclin Y, sequence (Q00536 whole entry): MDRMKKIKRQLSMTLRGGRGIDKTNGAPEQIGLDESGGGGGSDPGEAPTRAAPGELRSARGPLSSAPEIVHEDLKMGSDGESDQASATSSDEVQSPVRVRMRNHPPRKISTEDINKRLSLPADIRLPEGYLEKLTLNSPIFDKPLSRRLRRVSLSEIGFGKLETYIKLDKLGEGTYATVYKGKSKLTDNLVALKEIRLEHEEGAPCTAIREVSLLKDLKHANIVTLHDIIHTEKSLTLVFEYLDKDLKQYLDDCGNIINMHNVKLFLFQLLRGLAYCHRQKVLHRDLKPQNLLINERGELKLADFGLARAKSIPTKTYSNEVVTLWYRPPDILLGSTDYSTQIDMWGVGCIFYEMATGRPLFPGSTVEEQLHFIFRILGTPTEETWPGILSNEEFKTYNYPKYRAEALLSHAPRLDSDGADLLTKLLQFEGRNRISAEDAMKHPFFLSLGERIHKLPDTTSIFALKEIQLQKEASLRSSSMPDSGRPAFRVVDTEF
# CDK16/Cyclin Y, sequence (Q8ND76 whole entry partner): as the sequence (Q8ND76 whole entry partner) above
# CDK6/Cyclin D1, sequence (Q00534 whole entry): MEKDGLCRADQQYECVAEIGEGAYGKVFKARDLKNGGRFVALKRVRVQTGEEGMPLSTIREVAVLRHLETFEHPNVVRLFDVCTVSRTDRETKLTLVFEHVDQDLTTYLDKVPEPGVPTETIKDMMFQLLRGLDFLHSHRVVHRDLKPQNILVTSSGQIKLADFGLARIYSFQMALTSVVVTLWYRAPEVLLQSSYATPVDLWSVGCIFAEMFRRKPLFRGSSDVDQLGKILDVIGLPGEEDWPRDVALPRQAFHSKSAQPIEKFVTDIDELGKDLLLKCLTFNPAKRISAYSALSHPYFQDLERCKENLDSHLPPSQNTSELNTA
# CDK6/Cyclin D1, sequence (P24385 whole entry partner): as the sequence (P24385 whole entry partner) above
compound,measurement,setting,value
CC(C)(C)c1nc(-c2cccc(NS(=O)(=O)c3c(F)cccc3F)c2F)c(-c2ccnc(N)n2)s1 [Dabrafenib],inhibition at 10 µM,CDK4/Cyclin D1; average,21.4%
same,inhibition at 10 µM,CDK4/Cyclin D1; experiment 1,5.4%
same,inhibition at 10 µM,CDK4/Cyclin D1; experiment 2,37.4%
same,inhibition at 10 µM,CDK5/CDK5R1; average,-2.2%
same,inhibition at 10 µM,CDK5/CDK5R1; experiment 1,-4.1%
same,inhibition at 10 µM,CDK5/CDK5R1; experiment 2,-0.278%
same,inhibition at 10 µM,CDK8/Cyclin C; average,-1.9%
same,inhibition at 10 µM,CDK8/Cyclin C; experiment 1,-1.4%
same,inhibition at 10 µM,CDK8/Cyclin C; experiment 2,-2.4%
same,inhibition at 10 µM,CDK11A/Cyclin L2; average,9.5%
same,inhibition at 10 µM,CDK11A/Cyclin L2; experiment 1,2.1%
same,inhibition at 10 µM,CDK11A/Cyclin L2; experiment 2,16.8%
same,inhibition at 10 µM,CDK11B/Cyclin L2; average,4.4%
same,inhibition at 10 µM,CDK11B/Cyclin L2; experiment 1,2.7%
same,inhibition at 10 µM,CDK11B/Cyclin L2; experiment 2,6%
same,inhibition at 10 µM,CDK12/Cyclin K; average,20.2%
same,inhibition at 10 µM,CDK12/Cyclin K; experiment 1,5.9%
same,inhibition at 10 µM,CDK12/Cyclin K; experiment 2,34.6%
same,inhibition at 10 µM,CDK13/Cyclin K; average,10.9%
same,inhibition at 10 µM,CDK13/Cyclin K; experiment 1,7.1%
same,inhibition at 10 µM,CDK13/Cyclin K; experiment 2,14.7%
same,inhibition at 10 µM,CDK14/Cyclin Y; average,0.0911%
same,inhibition at 10 µM,CDK14/Cyclin Y; experiment 1,0.459%
same,inhibition at 10 µM,CDK14/Cyclin Y; experiment 2,-0.277%
same,inhibition at 10 µM,CDK15/Cyclin Y; [1],14.6%
same,inhibition at 10 µM,"CDK15/Cyclin Y; CDK15/Y, experiment 1, read-out: Inhibition at 10µM (%)",4.4%
same,inhibition at 10 µM,CDK15/Cyclin Y; [2],24.7%
same,inhibition at 10 µM,CDK16/Cyclin Y; experiment 1,1.4%
same,inhibition at 10 µM,CDK16/Cyclin Y; experiment 2,-3.4%
same,inhibition at 10 µM,CDK17/Cyclin Y; [3],10.2%
same,inhibition at 10 µM,CDK17/Cyclin Y; [4],4%
same,inhibition at 10 µM,"CDK17/Cyclin Y; read-out: Inhibition at 10µM (%), CDK17/Y, experiment 1",16.4%
same,inhibition at 10 µM,CDK18/Cyclin Y; average,8.1%
same,inhibition at 10 µM,CDK18/Cyclin Y; experiment 1,1.7%
same,inhibition at 10 µM,CDK18/Cyclin Y; experiment 2,14.5%
same,inhibition at 10 µM,"CDK20/Cyclin H; CDK20/H, experiment 1, read-out: Inhibition at 10µM (%)",13.5%
same,inhibition at 10 µM,"CDK20/Cyclin H; CDK20/H, experiment 2, read-out: Inhibition at 10µM (%)",6.7%
same,engagement of CDKs at concentrations up to 10μM,all 21 human CDKs; live cells,only weakly engaged
same,inhibition at 10 µM,CDK19/Cyclin C; average,-6.6%
same,inhibition at 10 µM,CDK19/Cyclin C; experiment 1,0.8%
same,inhibition at 10 µM,CDK19/Cyclin C; experiment 2,-14%
same,inhibition at 10 µM,CDK10/Cyclin L2; average,12.7%
same,inhibition at 10 µM,CDK10/Cyclin L2; experiment 1,3%
same,inhibition at 10 µM,CDK10/Cyclin L2; experiment 2,22.4%
NS(=O)(=O)c1ccc(Nc2nc(OCC3CCCCC3)c3nc[nH]c3n2)cc1 [NU6102],inhibition at 10 µM,CDK6/Cyclin D1; average,82.2%
same,inhibition at 10 µM,CDK6/Cyclin D1; experiment 1,70.6%
same,inhibition at 10 µM,CDK6/Cyclin D1; experiment 2,93.7%
same,inhibition at 10 µM,CDK8/Cyclin C; average,11.3%
same,inhibition at 10 µM,CDK8/Cyclin C; experiment 1,17.2%
same,inhibition at 10 µM,CDK8/Cyclin C; experiment 2,5.4%
same,inhibition at 10 µM,CDK11A/Cyclin L2; average,14%
same,inhibition at 10 µM,CDK11A/Cyclin L2; experiment 1,10.4%
same,inhibition at 10 µM,CDK11A/Cyclin L2; experiment 2,17.6%
same,inhibition at 10 µM,CDK11B/Cyclin L2; average,27.3%
same,inhibition at 10 µM,CDK11B/Cyclin L2; experiment 1,13.2%
same,inhibition at 10 µM,CDK11B/Cyclin L2; experiment 2,41.4%
same,inhibition at 10 µM,CDK12/Cyclin K; average,3.2%
same,inhibition at 10 µM,CDK12/Cyclin K; experiment 1,8.2%
same,inhibition at 10 µM,CDK12/Cyclin K; experiment 2,-1.8%
same,inhibition at 10 µM,CDK13/Cyclin K; average,18.1%
same,inhibition at 10 µM,CDK13/Cyclin K; experiment 1,10.3%
same,inhibition at 10 µM,CDK13/Cyclin K; experiment 2,25.9%
same,inhibition at 10 µM,CDK14/Cyclin Y; average,13.8%
same,inhibition at 10 µM,CDK14/Cyclin Y; experiment 1,9.9%
same,inhibition at 10 µM,CDK14/Cyclin Y; experiment 2,17.7%
same,inhibition at 10 µM,CDK15/Cyclin Y; [1],28.3%
same,inhibition at 10 µM,CDK15/Cyclin Y; [2],10.5%
same,inhibition at 10 µM,"CDK15/Cyclin Y; read-out: Inhibition at 10µM (%), CDK15/Y, experiment 1",46.2%
same,inhibition at 10 µM,CDK16/Cyclin Y; experiment 1,66.5%
same,inhibition at 10 µM,CDK16/Cyclin Y; experiment 2,85.2%
same,inhibition at 10 µM,CDK17/Cyclin Y; [3],44.7%
same,inhibition at 10 µM,"CDK17/Cyclin Y; CDK17/Y, experiment 1, read-out: Inhibition at 10µM (%)",40.2%
same,inhibition at 10 µM,CDK17/Cyclin Y; [4],49.2%
same,inhibition at 10 µM,CDK18/Cyclin Y; average,30.2%
same,inhibition at 10 µM,CDK18/Cyclin Y; experiment 1,20.4%
same,inhibition at 10 µM,CDK18/Cyclin Y; experiment 2,40.1%
same,inhibition at 10 µM,"CDK20/Cyclin H; read-out: Inhibition at 10µM (%), CDK20/H, experiment 1",59%
same,inhibition at 10 µM,"CDK20/Cyclin H; read-out: Inhibition at 10µM (%), CDK20/H, experiment 2",76.6%
same,pIC50,"all 21 human CDKs; remaining CDK family, live HEK-293, read-out: Collateral CDK (potency)",< 6.00
same,inhibition at 10 µM,CDK19/Cyclin C; average,13%
same,inhibition at 10 µM,CDK19/Cyclin C; experiment 1,21%
same,inhibition at 10 µM,CDK19/Cyclin C; experiment 2,4.9%
same,inhibition at 10 µM,CDK10/Cyclin L2; average,64%
same,inhibition at 10 µM,CDK10/Cyclin L2; experiment 1,47.6%
same,inhibition at 10 µM,CDK10/Cyclin L2; experiment 2,80.4%
